In PubChem BioAssay AID248 (DTP/NCI, 2004):
“And” between values parts separate entries of the source, which are not always exact repeats. Equal values may be shown once. Toxic doses and inconclusive results are not listed. Cut-off read from the data, not from the text of the source: active = T/C of 150% or more; inactive = T/C below 125%. Peptide text beside a SMILES is read from it. * marks the point of attachment. Cbz = O=C(OCc1ccccc1)*

Tested on: L1210 leukemia ip in BDF1 mice, survival T/C
Assay: NCI In Vivo Anticancer Drug Screen. Data for tumor model L1210 Leukemia (intraperitoneal) in B6D2F1 (BDF1) mice
Conditions: endpoint: mean survival time, higher = longer survival
Procedure, shortened: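 Survival endpoint. Drug-treated group vs vehicle group, expressed as T divided by C. Tumor passaged by transplantation.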

[1] = dose: 100.0 mg/kg/injection, schedule: Q04DX002 (ip), vehicle: Klucel (hydroxypropylcellulose) (HPC)
[2] = dose: 200.0 mg/kg/injection, schedule: Q04DX002 (ip), vehicle: Klucel (hydroxypropylcellulose) (HPC)
[3] = dose: 50.0 mg/kg/injection, schedule: Q01DX009 (ip), vehicle: saline with Tween-80
[4] = dose: 100.0 mg/kg/injection, schedule: Q01DX009 (ip), vehicle: saline with Tween-80
[5] = dose: 200.0 mg/kg/injection, schedule: Q01DX009 (ip), vehicle: saline with Tween-80
[6] = dose: 100.0 mg/kg/injection, schedule: Q04DX003 (ip), vehicle: Klucel (hydroxypropylcellulose) (HPC)
[7] = dose: 200.0 mg/kg/injection, schedule: Q04DX003 (ip), vehicle: Klucel (hydroxypropylcellulose) (HPC)
[8] = dose: 400.0 mg/kg/injection, schedule: Q04DX003 (ip), vehicle: Klucel (hydroxypropylcellulose) (HPC)
[9] = dose: 100.0 mg/kg/injection, schedule: Q01DX001 (ip), vehicle: carboxymethylcellulose (CMC)
[10] = dose: 100.0 mg/kg/injection, schedule: Q04DX003 (ip), vehicle: saline with Tween-80
[11] = dose: 100.0 mg/kg/injection, schedule: Q04DX003 (ip), vehicle: saline
[12] = dose: 200.0 mg/kg/injection, schedule: Q04DX003 (ip), vehicle: saline
[13] = dose: 200.0 mg/kg/injection, schedule: Q01DX001 (ip), vehicle: carboxymethylcellulose (CMC)

Measured: T/C

O=C(/C=C/C(=O)c1ccccc1)c1ccccc1
inactive: dose: 75.0 mg/kg/injection, schedule: Q04DX003 (ip), vehicle: Klucel (hydroxypropylcellulose) (HPC) 98 % of control | [1] 98 % of control | dose: 150.0 mg/kg/injection, schedule: Q04DX003 (ip), vehicle: Klucel (hydroxypropylcellulose) (HPC) 97 % of control | [2] 106 % of control | dose: 300.0 mg/kg/injection, schedule: Q04DX003 (ip), vehicle: Klucel (hydroxypropylcellulose) (HPC) 104 % of control

CN(C)N=Nc1c(Cl)cc(Cl)cc1Cl
inactive: [3] 107 % of control | [4] 100 % of control | [5] 107 % of control

O=C(CNC(=O)Nc1ccc(Cl)c(Cl)c1)N/N=C/c1cccc(F)c1
inactive: [3] 96 % of control | [4] 93 % of control | [5] 89 % of control

Cc1ccccc1OS(=O)(=O)c1ccccc1[N+](=O)[O-]
inactive: [4] 103 % of control | [6] 95 % of control | [5] 90 % of control | [7] 104 % of control | dose: 400.0 mg/kg/injection, schedule: Q01DX009 (ip), vehicle: saline with Tween-80 108 % of control | [8] 90 % of control

CC1CCC(C2=CSC3CCCCC3N2)CC1 (stereo not given)
inactive: dose: 100.0 mg/kg/injection, schedule: Q04DX002 (ip), vehicle: other 105 % of control | dose: 200.0 mg/kg/injection, schedule: Q04DX002 (ip), vehicle: other 94 % of control | dose: 400.0 mg/kg/injection, schedule: Q04DX002 (ip), vehicle: other 94 % of control

COc1cc2c(cc1OC)C1(NCC2)C(=O)c2ccccc2C1=O
inactive: dose: 100.0 mg/kg/injection, schedule: Q01DX001 (ip), vehicle: Klucel (hydroxypropylcellulose) (HPC) 100 % of control | dose: 200.0 mg/kg/injection, schedule: Q01DX001 (ip), vehicle: Klucel (hydroxypropylcellulose) (HPC) 106 % of control | dose: 400.0 mg/kg/injection, schedule: Q01DX001 (ip), vehicle: Klucel (hydroxypropylcellulose) (HPC) 117 % of control

C[CH2][Pb]([CH2]C)([CH2]C)[S]c1ccc(Cl)cc1
inactive: dose: 25.0 mg/kg/injection, schedule: Q04DX002 (sc), vehicle: olive oil, sesame oil, peanut oil 110 % of control | dose: 50.0 mg/kg/injection, schedule: Q04DX002 (sc), vehicle: olive oil, sesame oil, peanut oil 87 % of control

CN(CCO)C(=O)C1C(c2ccccc2)C1c1ccccc1 (stereo not given)
inactive: [1] 100 % of control | [2] 94 % of control | dose: 400.0 mg/kg/injection, schedule: Q04DX002 (ip), vehicle: Klucel (hydroxypropylcellulose) (HPC) 97 % of control

O=[N+]([O-])c1ccc2cnn(CN3CCCCC3)c2c1
inactive: [9] 98 % of control | dose: 400.0 mg/kg/injection, schedule: Q01DX001 (ip), vehicle: carboxymethylcellulose (CMC) 98 % of control

Cc1ccc(-c2nc3ccccc3c(=O)o2)cc1
inactive: dose: 50.0 mg/kg/injection, schedule: Q01DX009 (ip), vehicle: gum acacia 93 % of control and 100 % of control | dose: 100.0 mg/kg/injection, schedule: Q01DX009 (ip), vehicle: gum acacia 93 % of control and 100 % of control | dose: 100.0 mg/kg/injection, schedule: Q04DX003 (ip), vehicle: gum acacia 106 % of control | dose: 200.0 mg/kg/injection, schedule: Q04DX003 (ip), vehicle: gum acacia 88 % of control

CC(=O)CC(Br)CBr (stereo not given)
inactive: dose: 25.0 mg/kg/injection, schedule: Q04DX003 (ip), vehicle: saline with Tween-80 91 % of control | dose: 50.0 mg/kg/injection, schedule: Q04DX003 (ip), vehicle: saline with Tween-80 98 % of control | [10] 100 % of control

C=CC1(C)CCC2C(=CCC3C2(C)CC(O)C(O)C3(C)COC2OC(CO)C(O)C(O)C2O)C1 (stereo not given)
inactive: dose: 75.0 mg/kg/injection, schedule: Q01DX001 (ip), vehicle: saline 96 % of control

CCOC(O)C(Cl)(Cl)Cl (stereo not given)
inactive: dose: 100.0 mg/kg/injection, schedule: Q01DX009 (ip), vehicle: saline 103 % of control | [11] 100 % of control | dose: 200.0 mg/kg/injection, schedule: Q01DX009 (ip), vehicle: saline 102 % of control | [12] 103 % of control | dose: 400.0 mg/kg/injection, schedule: Q01DX009 (ip), vehicle: saline 92 % of control | dose: 400.0 mg/kg/injection, schedule: Q04DX003 (ip), vehicle: saline 90 % of control

COC(=O)C(CC(C)C)NC(=O)C(CC(N)=O)NC(=O)OCc1ccccc1 (stereo not drawn) (Cbz-Asn-Leu-OMe; configuration not given here)
inactive: dose: 100.0 mg/kg/injection, schedule: Q01DX001 (ip), vehicle: saline 96 % of control | dose: 200.0 mg/kg/injection, schedule: Q01DX001 (ip), vehicle: saline 93 % of control | dose: 400.0 mg/kg/injection, schedule: Q01DX001 (ip), vehicle: saline 98 % of control

O=C1NC(=O)C2(CCN(CCCSc3ccc(F)cc3)CC2)C(=O)N1
inactive: [6] 98 % of control | [7] 98 % of control | [8] 94 % of control

CC(=O)Nc1ccc(/C=N/NC(=O)CNC(=O)Nc2cccc(Cl)c2)cc1
inactive: dose: 12.5 mg/kg/injection, schedule: Q01DX009 (ip), vehicle: saline with Tween-80 95 % of control | dose: 25.0 mg/kg/injection, schedule: Q01DX009 (ip), vehicle: saline with Tween-80 95 % of control | [3] 87 % of control and 91 % of control

CN1CCC2(CC1)SSC1(CCN(C)CC1)S2
inactive: [11] 98 % of control | [12] 98 % of control

CCC(=O)Oc1ccc(/C=N/NC(N)=S)nc1
inactive: dose: 100.0 mg/kg/injection, schedule: Q04DX002 (ip), vehicle: saline with Tween-80 113 % of control

CCCCNC(=O)Nc1ccc(N(C)C)cc1
inactive: [3] 95 % of control | [4] 92 % of control | [10] 102 % of control | [5] 90 % of control | dose: 200.0 mg/kg/injection, schedule: Q04DX003 (ip), vehicle: saline with Tween-80 100 % of control | dose: 400.0 mg/kg/injection, schedule: Q04DX003 (ip), vehicle: saline with Tween-80 109 % of control

CCC(=O)Nc1ccc(Cl)cc1OC
inactive: dose: 100.0 mg/kg/injection, schedule: Q01DX009 (ip), vehicle: Klucel (hydroxypropylcellulose) (HPC) 100 % of control | dose: 200.0 mg/kg/injection, schedule: Q01DX009 (ip), vehicle: Klucel (hydroxypropylcellulose) (HPC) 102 % of control | dose: 400.0 mg/kg/injection, schedule: Q01DX009 (ip), vehicle: Klucel (hydroxypropylcellulose) (HPC) 100 % of control

O=S1(=O)CC2(N3CCOCC3)CCCCC21 (stereo not given)
inactive: dose: 50.0 mg/kg/injection, schedule: Q01DX001 (ip), vehicle: carboxymethylcellulose (CMC) 98 % of control | [9] 104 % of control | [13] 98 % of control

CCN(CC)CCOC(=O)C1c2ccccc2Oc2ccccc21
inactive: [9] 102 % of control | [13] 94 % of control
